{
  "source": "patent US20080167290A1",
  "about": "“Combination of a Serotonin Reuptake Inhibitor and Amoxapine” (H. Lundbeck A/S, priority 2003, published 2008)",
  "tested_on": "5-HT levels in ventral hippocampus",
  "conditions": "for effects on hippocampal 5-HT levels: amoxapine alone, rat ventral hippocampus microdialysis",
  "experimental": "Male albino rats of a Wistar-derived strain (285-320 g; Harlan, Zeist, The Netherlands) were used for the experiments. Upon surgery, rats were housed individually in plastic cages (35×35×40 cm), and had free access to food and water. Animals were kept on a 12 h light schedule (light on 7:00 a.m.). The experiments are concordant with the declarations of Helsinki and were approved by the animal care committee of the faculty of mathematics and natural science of the University of Groningen.\nPreceding surgery rats were anaesthetised using isoflurane (O2/N2O; 300/300 ml/min). Lidocaine-HCl, 10% (m/v) was used for local anaesthesia.\nRats were allowed to recover for at least 24 h. […] 15 minute microdialysis samples were collected in HPLC vials containing 7.5 μl 0.02 M acetic acid for serotonin analysis.\nTwenty-μl microdialysate samples were injected via an autoinjector (CMA/200 refrigerated microsampler, CMA, Sweden) onto a 100×2.0 mm C18 Hypersil 3 μm column (Bester, Amstelveen, the Netherlands) and separated with a mobile phase consisting of 5 g/L di-ammoniumsulfate, 500 mg/L EDTA, 50 mg/L heptane sulphonic acid, 4% methanol v/v, and 30 μl/L of triethylamine, pH 4.65 at a flow of 0.4 ml/min (Shimadzu LC-10 AD). 5-HT was detected amperometrically at a glassy carbon electrode at 500 mV vs Ag/AgCl (Antec Leyden, Leiden, The Netherlands). The detection limit was 0.5 fmol 5-HT per 20 μl sample (signal to noise ratio 3).\nFour consecutive microdialysis samples with less then 20% variation were taken as control and set at 100%. […] Treatments were compared versus controls using two way analysis of variance (ANOVA) for repeated measurements, followed by Student Newman Keuls test. […] Level of significance level was set at p<0.05.",
  "note": "Where two headings read alike, the source gives them in different places.",
  "data": [
    {"smiles": "Clc1ccc2c(c1)C(N1CCNCC1)=Nc1ccccc1O2", "note": "[amoxapine]", "values": [
      {"measurement": "effects on hippocampal 5-HT levels", "setting": "1 μmol/kg s.c., P=0.08", "value": "did not induce any significant effects"},
      {"measurement": "effects on hippocampal 5-HT levels", "setting": "10 μmol/kg s.c., P=0.47", "value": "did not induce any significant effects"},
      {"measurement": "response in the 5-HT microdialysis model", "setting": "summary statement, dose not stated, compared to the serotonin reuptake inhibitor alone", "value": "no significant effect"}
    ]}
  ]
}
